Data from the NIST ThermoML archive (doi:10.1016/j.jct.2017.08.002).

Test: mn = molality of the nth substance listed, in mol/kg
Conditions: 101.33 kPa, Liquid; for speed of sound: Frequency=2 MHz, Linear variable-path acoustic interferometer; for mass density: Pycnometric method

O=C([O-])c1ccccc1O.[Na+] [sodium salicylate] + O
Conditions	mass density, 288.15 K [kg/m3]	mass density, 298.15 K [kg/m3]	mass density, 308.15 K [kg/m3]	speed of sound, 288.15 K [m/s]	speed of sound, 298.15 K [m/s]	speed of sound, 308.15 K [m/s]
m1 = 0.01	–	–	994.69	–	–	1520.8
m1 = 0.0101	999.8	997.73	–	1466.8	1497.6	–
m1 = 0.0221	1000.62	998.51	995.46	1467.9	1498.8	1521.9
m1 = 0.0307	1001.19	999.07	–	1468.7	1499.6	–
m1 = 0.0333	–	–	996.16	–	–	1523
m1 = 0.04	–	–	996.59	–	–	1523.6
m1 = 0.0448	1002.19	1000	–	1470	1501	–
m1 = 0.0451	–	–	996.9	–	–	1524.2
m1 = 0.0501	1002.51	1000.34	997.24	1470.5	1501.5	1524.6
m1 = 0.0546	1002.85	1000.67	–	1470.8	1501.9	–
m1 = 0.0572	–	–	997.65	–	–	1525.3
m1 = 0.06	1003.2	1001.01	–	1471.4	1502.4	–
m1 = 0.0667	1003.66	–	–	1472	–	–
m1 = 0.0702	–	–	998.5	–	–	1526.5
m1 = 0.0704	1003.92	1001.66	–	1472.3	1503.5	–
m1 = 0.0802	1004.55	1002.35	999.1	1473.2	1504.4	1527.5
m1 = 0.0848	1004.87	1002.59	–	1473.6	1504.9	–
m1 = 0.0857	–	–	999.47	–	–	1528
m1 = 0.0906	1005.23	–	999.8	1474.2	–	1528.4
m1 = 0.0907	–	1002.99	–	–	1505.4	–
m1 = 0.0951	–	1003.26	1000.07	–	1505.8	1528.9
m1 = 0.1018	–	1003.68	–	–	1506.5	–
m1 = 0.1019	1006	–	–	1475.2	–	–
m1 = 0.1023	–	–	1000.5	–	–	1529.6
